Experimental data: US4594345A, “Methylflavone-8-carboxylates” (Nippon Shinyaku Co. Ltd., priority 1982, dated 1986)

Tests used:
[1] = system: passive cutaneous anaphylaxis (PCA); assay: Passive cutaneous anaphylaxis assay (PCA) in rats; format: in vivo, rat (Wister strain); conditions: oral 10 mg/kg, one hour before antigen; for inhibition in vivo at 10 mg/kg: Rattus norvegicus, po, 1 h, read-out: PCA Inhibition Ratio %
Description: (§1) The effect of the compounds (I) of the present invention in the treatment of asthma and allergic diseases were evaluated by a passive cutaneous anaphylaxis assay (PCA) in rats and by measuring anti-SRS-A action using ileus of guinea pigs.
(i) Antiserum abundant in homocytotropic antibody is prepared by the same method as Tada and Okumura did (cf. Journal of Immunology, volume 106, page 1002, […]). Thus, one mg (calculated as an amount of protein) of DNP-As (2,4-dinitrophenyl-coupled ascaris extract) prepared by methods of Strejan and Campbell (Journal of Immunology, volume 98, page 893, 1971) and of Eisen (Journal of American Chemical Society, volume 85, page 4593, 1953) and […] pertussis vaccine are administered to each paw of Wister strain rats (180 to 200 grams body weights) by dividing the dose by four. Five days later, 0.5 mg of DNP-As is adminstered into muscle of back. Eight days later from the initial immunization, blood is taken from descending aorta under anesthetizing with ether, the resulting serum is stored at -80° C. and is melted before use.
(ii) Effect of tested compounds is investigated as follows:
Anti-serum obtained by the method (i) is diluted with physiological saline solution double by double successively and 0.05 ml of each diluted solution is administered into back of Wister strain rats (140 to 160 grams body weight) subcutaneously. After 72 hours, a solution of 2 mg (calculated as protein) of DNP-As and 2.5 mg of Evand Blue dissolved in 1 ml of physiological saline solution is administered intravenously at a dose of 5 ml/kg. After thirty minutes from antigen solution administration, the animals are killed and diameters of blue spots appeared at the place where antiserum is administered are measured. The PCA test is conducted by the same method as already described using a diluted solutions of antiserum which always show 10 mm or more of spot diameters and the effect of the test compounds is judged. Thus, antiserum diluted solutions are administered to two places in back. Test compounds are administered orally at the dose of 10 mg/kg one hour before administration of antigen solution. From the skin of reacted parts of killed animals, leaked or emitted dyestuff is extracted [cf. Baeck and Steinetz: J. Pharmacol. Exp. Ther., Vol. 131, page 400 (1961)] and the amount of the dyestuff is measured. The inhibition ratio is calculated by the following expression: [formula] in which R' is an amount of dyestuff in the group treated with the test compounds and A is that in the control group.

[2] = system: SRS-A; assay: Anti-SRS-A action (SRS-A induced shrinkage of guinea pig ileus); parameters: species or system guinea pig (Hartley strain male); conditions: treated five minutes before SRS-A (20 units), 5 min; for SRS-A Inhibition Ratio % 10^-6 M: 1 µM; for SRS-A Inhibition Ratio % 10^-7 M: 0.1 µM
Description: as §1
Anti-SRS-A action (An anti-action against slow reacting substance of anaphylaxie)
Hartley strain male guinea pigs (300 to 350 grams body weight) are killed and 1.0 to 1.5 cm of ileus is immediately excised from ileocecal parts and is suspended in 10 ml of Tyrode solution (95% O2 -5% CO2 saturation) containing 10^-7 g/ml of atropine and 10^-6 g/ml of pyrilamine. SRS-A (20 units) (the amount of SRS-A showing the same shrinkage as 5 ng of histamine is defined as one unit) prepared by using sensitized guinea pig lung is given to cause shrinkage there. Then antagonistic action of test compounds treated five minutes ago against the shrinkage is measured and recorded via isotonic transducer. [formula] in which A' is a height of shrinkage of SRS-A + test compound and A is that of SRS-A.

SMILES	inhibition in vivo at 10 mg/kg [1]	SRS-A Inhibition Ratio % 10^-6 M [2]	SRS-A Inhibition Ratio % 10^-7 M [2]	PCA Inhibition Ratio % [1]
CCOC(=O)c1cccc2c(=O)c(C)c(-c3ccc(C)cc3C)oc12 [Example 40, ethyl 2',3,4'-trimethylflavone-8-carboxylate]	17.3%	73.9%	8.1%	
CCOC(=O)c1cccc2c(=O)c(C)c(-c3ccc(OC)c(OC)c3OC)oc12 [Example 31, ethyl 2',3',4'-trimethoxy-3-methylflaveone-8-carboxylate]		63.0%	20.4%	20.2%
CCN(CC)C(=O)c1cccc2c(=O)c(C)c(-c3ccccc3)oc12 [Example 9, 3-methylflavone-8-carboxylic acid N,N-diethylamide]	21.9%	64.7%	50.7%	
CCNC(=O)c1cccc2c(=O)c(C)c(-c3ccc(Cl)cc3)oc12 [Example 73, 4'-chloro-3-methylflavone-8-carboxylic acid N-ethylamide]	19.4%	29.4%	6.2%	
CCOC(=O)c1cccc2c(=O)c(C)c(-c3cccc(OC)c3OC)oc12 [Example 24, ethyl 2'.3'-dimethoxy-3-methylflavone-8-carboxylate]	20.4%	100%	18.2%	
CCOC(=O)c1cccc2c(=O)c(C)c(-c3ccc(CC)cc3)oc12 [Example 45, ethyl 4'-ethyl-3-methylflavone-8-carboxylate]	19%	52.2%	16.0%	
CCOC(=O)c1cccc2c(=O)c(C)c(-c3ccccc3Cl)oc12 [Example 67, ethyl 2'-chloro-3-methylflavone-8-carboxylate]	19.8%	100%	42.9%	
CCN(CC)C(=O)c1cccc2c(=O)c(C)c(-c3ccc(OC)cc3OC)oc12 [Example 28, 2',4'-dimethoxy-3-methylflavone-8-carboxylic acid N,N-diethylamide]	20.1%	63.2%	23.0%	
CCOC(=O)c1cccc2c(=O)c(C)c(-c3ccccc3C)oc12 [Example 34, 2',3-dimethylflavone-8-carboxylic acid ethyl ester]	19.5%	71.4%	47.6%	
CCNC(=O)c1cccc2c(=O)c(C)c(-c3ccccc3OCC)oc12 [Example 19, 2'-ethoxy-3-methylflavone-8-carboxylic acid N-ethylamide]	16%	50.0%	30.0%	
CCCCN(CC)C(=O)c1cccc2c(=O)c(C)c(-c3ccc(C(C)C)cc3)oc12 [Example 50, 4'-isopropyl-3-methylflavone-8-carboxylic acid N-n-butyl-N-ethylamide]	21.4%	100%	70.0%	
Cc1ccc(-c2oc3c(C(=O)O)cccc3c(=O)c2C)c(C)c1 [Example 39, 2',3,4'-trimethylflavone-8-carboxylic acid]	37%	5.3%	3.2%	
CCOC(=O)c1cccc2c(=O)c(C)c(-c3ccccc3OC(C)C)oc12 [Example 21, ethyl 2'-isopropoxy-3-methylflavone-8-carboxylate]	17.8%	31.0%	19.8%	
CCN(CC)C(=O)c1cccc2c(=O)c(C)c(-c3ccccc3OC(C)C)oc12 [Example 22, 2'-isopropoxy-3-methylflavone-8-carboxylic acid N,N-diethylamide]	16.1%	66.7%	40.0%	
